Source: patent US8796234B2, “Crosslinking branched molecule through thiol-disulfide exchange to form hydrogel” (Agency for Science, Technology and Research, priority 2009, dated 2014)

Assay: Drug loading capacity of sample hydrogel
Format: physicochemical
Settings: poly(BAC2-AEPZ1)-PEG hydrogel
Protocol: Aqueous solutions of 5 wt % poly(BAC2-AEPZ1)-PEG was prepared and left to equilibrate overnight at room temperature. Appropriate amounts of doxorubicin (Dox) were loaded to make the concentration of Dox in the polymer solution 5 mg mL^−1. Subsequently, small amount of 5M sodium hydroxide (NaOH) was added in and was being vortexed for a few minutes to adjust pH to more than 12, and the solutions turn blue. Then, the solution was left undisturbed during hydrogel formation for predetermined time. After predetermined time, a slight in excessive of 5M HCl was added to neutralize the hydrogel to keep the hydrogel stable, and the hydrogel turned red. […]
The results were presented in terms of cumulative release as a function of time: Cumulative amount release (%)=(Mt/M∞) where Mt is the amount of Dox released from the hydrogel at time t and M∞ is the estimate amount of Dox loaded in the hydrogel and was calculated from the weight difference of the initial Dox solution concentration and the remaining Dox solution concentration (combining rinsing water and remaining solution expelled from the hydrogel) after loading.
1 mL of Pac/methanol was extracted from saturated stock solution (50 mg/mL) and added to a vial. […] The column effluent was detected UV spectrophotometrically at wavelength of 227 nm. […]

loading capacity of drug in the sample hydrogel	SMILES
5-10%	COc1cccc2c1C(=O)c1c(O)c3c(c(O)c1C2=O)C[C@@](O)(C(=O)CO)C[C@@H]3O[C@H]1C[C@H](N)[C@H](O)[C@H](C)O1 [Dox, doxorubicin]
30-50%	CC(=O)O[C@H]1C(=O)[C@@]2(C)[C@H]([C@H](OC(=O)c3ccccc3)[C@]3(O)C[C@H](OC(=O)[C@H](O)[C@@H](NC(=O)c4ccccc4)c4ccccc4)C(C)=C1C3(C)C)[C@]1(OC(C)=O)CO[C@@H]1C[C@@H]2O [Pac, Paclitaxel]
